Experimental data: article PMC8944987, “In Vivo Efficacy of SQ109 against Leishmania donovani, Trypanosoma spp. and Toxoplasma gondii and In Vitro Activity of SQ109 Metabolites” (Biomedicines, 2022)
Several values for one entry are separate records, joined by “and”; a condition that tells them apart may be missing. Equal values may be shown once. Entries after “also recorded” stand apart in the source; their conditions may differ.

How the values were obtained:
[1] = test system: Plasmodium falciparum mature gametocytes (stage IV/V); parameters: method as in PMID 33431834; details: cited from earlier work
[2] = test system: L. donovani intracellular amastigotes; parameters: method as in PMID 31897791; details: J774 macrophages as host cells; cited from earlier work
T. cruzi trypomastigotes = test system: T. cruzi trypomastigotes; parameters: method as in PMID 25583723; details: cited from earlier work
[3] = Reported tissue (liver) accumulation on repeated oral dosing; type: in vivo; details: assuming the same volume-to-mass ratio, 28-day oral dosing, 10 mg/kg, from ref 30, read-out: SQ109 liver concentration
[4] = test system: T. cruzi Dm28c epimastigotes; assay: T. cruzi epimastigotes assay (resazurin); type: cell-based; details: Trypanosoma cruzi
Protocol: The exponential growth phase of epimastigotes were treated with different concentrations of drugs or 0.1% DMSO as negative control and incubated for 3 days at 28 °C. The viability of parasites was quantified with resazurin as described in the T. brucei assay.

[5] = parameters: method as in PMID 16432511; details: in mice; cited from earlier work
[6] = test system: T. b. brucei Lister strain 427 bloodstream form (BSF); assay: In vitro activity assay for T. brucei (resazurin growth inhibition); type: cell-based; details: Trypanosoma brucei
[7] = test system: T. gondii tachyzoites of the RH strain; assay: T. gondii in vivo mouse model; parameters: species or system Webster mice; details: for survival of T. gondii infected mice: 20 and 50 mg/kg daily for 10 days
[8] = test system: intracellular T. cruzi Dm28c amastigotes in U2OS; assay: T. cruzi intracellular amastigotes assay in U2OS (image based); type: cell-based; details: Trypanosoma cruzi
Protocol: U2OS human osteosarcoma cells were maintained in DMEM supplemented with high glucose, 10% FBS, and 1% P/S at 37 °C with 5% CO2 in air. […] Cell images were acquired by an automated image analyzer (Operetta, Perkin Elmer Technology, Waltham, MA, USA); analysis included at least 1000 cells in five fields per well. For the imaging of infected cells and parasites, Draq-5 was observed under a 20× air objective. An image analysis algorithm (Columbus, Perkin Elmer Technology) was used to detect the Draq-5 signal in the nuclei of cells and parasites as described in a previous article and shown in Supplementary Figure S1 [20]. The number of parasites was defined by the value of the number of parasites in infected cells of the acquired image.

[9] = in vivo, 25 mg/kg; cited from earlier work
T. b. brucei Lister 427 = assay: T. brucei acute in vivo mouse model; parameters: species or system BALB/c mice
L. donovani amastigotes = assay: L. donovani (VL) in vivo mouse model, liver LDU; parameters: species or system BALB/c mice; details: for parasite burden in liver (LDU): 5 days of treatment; for reduction of parasite burden: versus vehicle-treated group
Protocol: BALB/c mice (n = 5) were injected with 2 × 10^7 hamster spleen-derived L. donovani amastigotes via the retro-orbital venous sinus route. From day 7 post-infection, groups of mice were treated using the drug vehicle only, miltefosine (30 mg/kg), or SQ109 (30, 50, 100 mg/kg). On day 16 post-infection, all animals were humanely euthanized and assessed microscopically using Giemsa-stained liver imprints. […] The LDU values for the drug-treated samples were compared to those of the untreated samples.

[10] = Reported plasma protein binding; type: in vitro ADME, mice; details: from the reported plasma protein binding
[11] = test system: L. mexicana intracellular amastigotes; parameters: method as in PMID 27458218; details: cited from earlier work
[12] = Adverse effects observed during the in vivo experiments; parameters: species or system mice; details: tested doses (20 to 100 mg/kg)
[13] = cited from earlier work
[14] = test system: THP-1 human monocyte cell line; assay: Host cell toxicity in the L. donovani amastigote assay; type: cell-based; details: 3 days of compound incubation; Figure 2F
Protocol: The THP-1 human monocyte cell line was grown in RPMI-1640 medium (Welgene, Gyeongsangbuk-do, Republic of Korea) supplemented with 10% FBS and 1% P/S. For differentiation, THP-1 cells were treated for 3 days with 50 ng/mL of PMA [20]. […] An image analysis was performed as described in the T. cruzi assay (Figure S2).

T. cruzi Dm28c = assay: T. cruzi acute in vivo mouse model; parameters: species or system BALB/c mice
From the text: BALB/c mice were infected with TCT of T. cruzi Dm28c (10^7 cells) by i.p. injection. Five days post-infection, infected mice were sacrificed to collect BSF of T. cruzi. BALB/c mice were intraperitoneally infected with BSF of T. cruzi Dm28c (5 × 10^4 cells). Five days post-infection, BALB/c mice were infected with previously collected 2nd-round BSF cells (3 × 10^4 cells). Mice were divided into groups (n = 10) and treated orally with drugs for 5 consecutive days for 2 weeks by starting from day 2 post-infection administration of DPBS, 100 mg/kg of benznidazole, or 100 mg/kg of SQ109 via p.o. route, respectively. Parasitemia was evaluated every 2 days for 5 weeks by blood collection from the mouse tail vein, and survival was monitored for 2 months. Mice showing impaired health status were euthanized.

T. gondii tachyzoites = assay: In vitro activity assay for T. gondii (td-tomato tachyzoites in hTert fibroblasts); type: cell-based; details: Toxoplasma gondii, Fibroblast; human fibroblasts (hTert), fluorescence 3 to 4 days; Figure 6A; read-out: IC50, T. gondii cell growth inhibition (intracellular tachyzoite assay)
Protocol: We used a parasite strain expressing red fluorescent protein (td-tomato) for in vitro drug testing. Tachyzoites were maintained in human fibroblasts (hTert cells). Human fibroblasts were cultured in 96-well plates for 24 h prior to the addition of 4000 fluorescent tachyzoites/well. Fluorescence values were measured for 3 to 4 days, and both excitation (544 nm) and emission (590 nm) were read from the bottom of the plates in a Molecular Devices (Molecular Devices, LLC, CA, USA) plate reader.

[15] = 100 mg/kg oral gavage, q.d. for 2 weeks

SMILES: CC(C)=CCC/C(C)=C/CNCCNC1C2CC3CC(C2)CC1C3 (stereo not drawn) [SQ109, N-adamantan-2-yl-N’-((E)-3,7-dimethyl-octa-2,6-dienyl)-ethane-1,2-diamine]
- IC50 [1]: 105 nM
- IC50 [2]: 7.17 nM and 7.2 nM
- IC50 (T. cruzi trypomastigotes): 50 nM
- concentration at 28 days [3]: ~6 µM
- IC50 ([4]; 72 h, Figure 2C, read-out: IC50, T. cruzi epimastigote growth inhibition (resazurin reduction)): 12600 nM
- EC50 ([4]; epimastigotes, read-out: T. cruzi Dm28c EC50 (EPI)): 4500 nM
- plasma protein binding [5]: 5.8–8.5%
- EC50 ([6]; bloodstream forms, read-out: T. brucei BSF EC50 (converted)): 810 nM
- IC50 ([6]; 3 days (72 h) of compound incubation, Figure 2A, read-out: IC50, T. brucei trypomastigote viability): 320 nM
- survival / protection of T. gondii infected mice against the initial infection ([7]; hypervirulent RH strain, 50 mg/kg i.p.): Eighty percent
- survival of T. gondii infected mice ([7]; i.p., Figure 6B): 50–80%
- survival of T. gondii infected mice ([7]; oral gavage, 40 days post-infection, Figure 6C): 30–40%
- animals surviving the re-challenge at day 42 ([7]; treated with 20 mg/kg/day): 4 out of 6
- outcome of the re-challenge at 42 days, in words ([7]; treated with 50 mg/kg/day): all died with the challenge
- IC50 ([8]; 72 h, U2OS host cells, 3 days of compound incubation, Figure 2D, read-out: IC50, intracellular T. cruzi amastigote survival): 610 nM
- EC50 ([8]; amastigotes in U2OS, read-out: T. cruzi Dm28c EC50 (AMA)): 1100 nM
- t1/2 (terminal phase) [9]: 5.2 h
- extended survival compared to the vehicle control (T. b. brucei Lister 427; 30 mg/kg, q.d. for 5 days, p.o.): 3.4 days
- average day of survival (T. b. brucei Lister 427; 30 mg/kg, q.d. for 5 days, p.o., T. brucei infected BALB/c mice): 8.6 days
- average days of extended survival compared to the vehicle control (T. b. brucei Lister 427; 100 mg/kg, q.d. for 5 days, p.o.): 3.6 days
- parasitemia in blood, in words (T. b. brucei Lister 427; 30 or 100 mg/kg p.o. for 5 days, Figure 3B): parasitemia rapidly increased after the termination of SQ109 administration; also recorded: not able to completely clear the parasites in the bloodstream
- parasite burden in liver (LDU) (L. donovani amastigotes; 30 mg/kg): 1060 ± 110 LDU
- parasite burden in liver (LDU) (L. donovani amastigotes; 50 mg/kg): 772 ± 89 LDU
- reduction of parasite burden (L. donovani amastigotes; 50 mg/kg): 31.8%
- parasite burden in liver (LDU) (L. donovani amastigotes; 100 mg/kg): 737 ± 145 LDU
- reduction of parasite burden (L. donovani amastigotes; 100 mg/kg): 34.9%
- free-drug fraction expected in mice plasma [10]: ~ 90%
- IC50 [11]: ~11 nM
- adverse effects throughout the in vivo experiments [12]: did not observe any adverse effects
- maximum tolerated dose (MTD) [13]: 600 mg/kg
- host cell (THP-1) toxicity: concentration up to which none was observed [14]: > 10 µM
- delay of the peak of parasitemia compared to the vehicle control (T. cruzi Dm28c; [15]): 4 days
- peak of parasitemia (T. cruzi Dm28c; [15]): 18 days post-infection
- parasite reduction at the peak of parasitemia of the vehicle group (T. cruzi Dm28c; 100 mg/kg oral gavage, q.d. for 2 weeks, 14 days post-infection): 46.1%
- survival of T. cruzi infected mice (T. cruzi Dm28c; 100 mg/kg p.o., 40 days post-infection): 80%
- IC50 (T. gondii tachyzoites): 1820 nM
